Experimental data reported in US9382254B2, “Compounds and pharmaceutical compositions thereof for the treatment of cystic fibrosis” (Galapagos NV, priority 2013, dated 2016).

biological target: T1, CFTR ΔF508 mutant (Homo sapiens, UniProt P13569, DEL508-508); experiment: YFP-halide influx assay for the CFTR-ΔF508 mutation, gluconate buffer; assay type: cell-based; conditions: CFBE41o- cells, forskolin 10.67 μM
T1 construct: expressed in transfected cells; host or cells: CFBE41o- (adenoviral transduction)
Summary of the method: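 CFBE41o- cells adenovirally transduced with CFTR ΔF508 and YFP H148Q/I152L, then held 24 h at 27 °C or treated with CFTR modulator 24 h at 37 °C. I− quenching recorded for 7 s after injection; activity as 1-F/F0, EC50 from concentration plot.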

T1 sequence (P13569 with tags, fused parts or gaps DEL508-508): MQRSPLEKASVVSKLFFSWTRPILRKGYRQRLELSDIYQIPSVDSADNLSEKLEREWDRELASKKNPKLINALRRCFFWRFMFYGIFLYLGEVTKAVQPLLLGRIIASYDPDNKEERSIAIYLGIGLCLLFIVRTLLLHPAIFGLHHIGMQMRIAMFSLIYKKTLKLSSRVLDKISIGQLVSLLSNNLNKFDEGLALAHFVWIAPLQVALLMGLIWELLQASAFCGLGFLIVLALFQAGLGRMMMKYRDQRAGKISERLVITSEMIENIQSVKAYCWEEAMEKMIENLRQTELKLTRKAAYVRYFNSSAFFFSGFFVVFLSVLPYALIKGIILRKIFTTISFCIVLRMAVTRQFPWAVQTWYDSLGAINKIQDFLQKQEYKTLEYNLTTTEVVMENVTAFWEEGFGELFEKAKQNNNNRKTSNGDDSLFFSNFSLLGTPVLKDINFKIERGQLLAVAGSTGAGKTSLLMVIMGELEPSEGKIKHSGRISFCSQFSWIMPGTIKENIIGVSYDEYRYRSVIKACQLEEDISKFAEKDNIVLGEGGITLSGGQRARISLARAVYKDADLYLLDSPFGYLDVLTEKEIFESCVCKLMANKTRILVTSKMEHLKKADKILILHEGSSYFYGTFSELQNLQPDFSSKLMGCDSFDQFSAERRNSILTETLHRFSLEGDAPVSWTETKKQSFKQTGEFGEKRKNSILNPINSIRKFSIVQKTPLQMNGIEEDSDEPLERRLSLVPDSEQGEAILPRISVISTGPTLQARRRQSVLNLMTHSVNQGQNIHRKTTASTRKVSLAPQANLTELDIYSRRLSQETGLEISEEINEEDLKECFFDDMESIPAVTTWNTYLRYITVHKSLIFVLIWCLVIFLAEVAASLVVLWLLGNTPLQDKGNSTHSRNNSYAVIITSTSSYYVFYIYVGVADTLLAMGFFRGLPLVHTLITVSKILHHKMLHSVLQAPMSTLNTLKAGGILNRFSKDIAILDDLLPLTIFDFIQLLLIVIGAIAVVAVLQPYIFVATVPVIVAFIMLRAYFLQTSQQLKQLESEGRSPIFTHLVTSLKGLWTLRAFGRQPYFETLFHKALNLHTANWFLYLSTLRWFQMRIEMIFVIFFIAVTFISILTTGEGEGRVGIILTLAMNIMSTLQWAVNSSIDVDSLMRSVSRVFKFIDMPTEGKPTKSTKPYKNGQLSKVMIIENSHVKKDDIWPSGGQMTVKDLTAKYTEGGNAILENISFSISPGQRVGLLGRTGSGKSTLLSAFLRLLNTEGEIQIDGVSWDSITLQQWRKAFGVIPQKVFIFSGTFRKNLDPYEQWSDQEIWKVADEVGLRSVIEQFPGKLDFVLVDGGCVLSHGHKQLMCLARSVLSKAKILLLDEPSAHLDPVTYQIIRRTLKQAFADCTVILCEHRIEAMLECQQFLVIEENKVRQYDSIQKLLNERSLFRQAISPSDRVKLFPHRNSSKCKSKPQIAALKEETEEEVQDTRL

Row | Compound | EC50 [nM]
1 | NC(=O)c1cc(S(=O)(=O)N2CCOCC2)sc1NC(=O)c1ccc[nH]1 [Compound 97, N-(3-carbamoyl-5-(morpholinosulfonyl)thiophen-2-yl)-1H-pyrrole-2-carboxamide] | > 1000
2 | NC(=O)c1cc(S(=O)(=O)N2CCOCC2)sc1NC(=O)c1ncco1 [Compound 98, N-(3-carbamoyl-5-(morpholinosulfonyl)thiophen-2-yl)oxazole-2-carboxamide] | > 1000
3 | NC(=O)c1cc(S(=O)(=O)N2CCOCC2)sc1NC(=O)c1ccco1 [Compound 99, N-(3-carbamoyl-5-(morpholinosulfonyl)thiophen-2-yl)furan-2-carboxamide] | 1940
4 | NC(=O)c1cc(S(=O)(=O)c2ccccc2)sc1NC(=O)c1ccccc1F [Compound 100, 2-(2-fluorobenzamido)-5-(phenylsulfonyl) thiophene-3-carboxamide] | 121
5 | NC(=O)c1cc(S(=O)(=O)N2CCOCC2)sc1NC(=O)c1cc(C(F)(F)F)[nH]n1 [Compound 102, N-(3-carbamoyl-5-(morpholinosulfonyl)thiophen-2-yl)-5-(trifluoromethyl)-1H-pyrazole-3-carboxamide] | 215
6 | Cc1c(S(=O)(=O)c2ccccc2)sc(NC(=O)c2ccccc2C(F)(F)F)c1C(N)=O [Compound 104, 4-methyl-5-(phenylsulfonyl)-2-(2-(trifluoromethyl)benzamido)thiophene-3-carboxamide] | 370
7 | Cc1c(S(=O)(=O)N2CCOCC2)sc(NC(=O)c2ccccc2C(F)(F)F)c1C(N)=O [Compound 105, 4-methyl-5-(morpholinosulfonyl)-2-(2-(trifluoromethyl)benzamido) thiophene-3-carboxamide] | 396
8 | CN(Cc1ccc(F)cc1)S(=O)(=O)c1cc(C(N)=O)c(NC(=O)c2ccccc2F)s1 [Compound 106, 2-(2-fluorobenzamido)-5-(N-(4-fluorobenzyl)-N-methylsulfamoyl) thiophene-3-carboxamide] | 213
9 | CN(C(C)(C)C)S(=O)(=O)c1cc(C(N)=O)c(NC(=O)c2ccccc2F)s1 [Compound 107, 5-(N-tert-butyl-N-methylsulfamoyl)-2-(2-fluorobenzamido) thiophene-3-carboxamide] | 130
10 | CN(CC(F)F)S(=O)(=O)c1cc(C(N)=O)c(NC(=O)c2ccccc2F)s1 [Compound 108, 5-(N-(2,2-difluoroethyl)-N-methylsulfamoyl)-2-(2-fluorobenzamido) thiophene-3-carboxamide] | 198
11 | CCc1cc(C(=O)Nc2sc(S(=O)(=O)c3ccc(F)cc3)cc2C(N)=O)n[nH]1 [Compound 110, N-(3-carbamoyl-5-(4-fluorophenylsulfonyl)thiophen-2-yl)-5-ethyl-1H-pyrazole-3-carboxamide] | 144
12 | CC(C)(C)C(=O)Nc1sc(S(=O)(=O)c2ccc(F)cc2)cc1C(N)=O [Compound 112, 5-(4-fluorophenylsulfonyl)-2-pivalamidothiophene-3-carboxamide] | 352
13 | NC(=O)c1cc(S(=O)(=O)c2cccc(F)c2)sc1NC(=O)c1ccccc1F [Compound 115, 2-(2-fluorobenzamido)-5-(3-fluorophenylsulfonyl) thiophene-3-carboxamide] | 235
14 | NC(=O)c1cc(S(=O)(=O)c2ccccc2F)sc1NC(=O)c1ccccc1F [Compound 117, 2-(2-fluorobenzamido)-5-(2-fluorophenylsulfonyl) thiophene-3-carboxamide] | 138
15 | CC(C)(C)C(=O)Nc1sc(S(=O)(=O)c2ccc(F)c(F)c2)cc1C(N)=O [Compound 120, 5-(3,4-difluorophenylsulfonyl)-2-pivalamidothiophene-3-carboxamide] | 488
16 | Cc1ccc(CN(C)S(=O)(=O)c2cc(C(N)=O)c(NC(=O)c3ccccc3F)s2)cc1 [Compound 124, 2-(2-fluorobenzamido)-5-(N-methyl-N-(4-methylbenzyl)sulfamoyl) thiophene-3-carboxamide] | 503
17 | CN(CC#N)S(=O)(=O)c1cc(C(N)=O)c(NC(=O)c2ccccc2F)s1 [Compound 125, 5-(N-(cyanomethyl)-N-methylsulfamoyl)-2-(2-fluorobenzamido) thiophene-3-carboxamide] | 580
18 | NC(=O)c1cc(S(=O)(=O)N2CC(F)(F)C2)sc1NC(=O)c1ccccc1F [Compound 126, 5-(3,3-diflluoroazetidin-1-ylsulfonyl)-2-(2-fluorobenzamido) thiophene-3-carboxamide] | 191
19 | CS(=O)(=O)c1cc(C(N)=O)c(NC(=O)c2ccccc2F)s1 [Compound 127, 2-(2-fluorobenzamido)-5-(methylsulfonyl) thiophene-3-carboxamide] | 659
20 | CCS(=O)(=O)c1cc(C(N)=O)c(NC(=O)c2ccccc2F)s1 [Compound 128, 5-(ethylsulfonyl)-2-(2-fluorobenzamido) thiophene-3-carboxamide] | 400

Row | Compound | EC50 [nM]
21 | NC(=O)c1cc(S(=O)(=O)C2CCCCC2)sc1NC(=O)c1ccccc1F [Compound 129, 5-(cyclohexylsulfonyl)-2-(2-fluorobenzamido) thiophene-3-carboxamide] | 275
22 | COc1ccc(CS(=O)(=O)c2cc(C(N)=O)c(NC(=O)c3ccccc3F)s2)cc1 [Compound 130, 2-(2-fluorobenzamido)-5-(4-methoxybenzylsulfonyl) thiophene-3-carboxamide] | 383
23 | NC(=O)c1cc(S(=O)(=O)N2CCOCC2)sc1NC(=O)C1(O)CC1 [Compound 131, 2-(1-hydroxycyclopropanecarboxamido)-5-(morpholinosulfonyl) thiophene-3-carboxamide] | 921
24 | Cc1nc(C(=O)Nc2sc(S(=O)(=O)N3CCOCC3)cc2C(N)=O)cs1 [Compound 132, N-(3-carbamoyl-5-(morpholinosulfonyl)thiophen-2-yl)-2-methylthiazole-4-carboxamide] | 3330
25 | NC(=O)c1cc(S(=O)(=O)N2CCOCC2)sc1NC(=O)c1ccc(Cl)cc1F [Compound 133, 2-(4-chloro-2-fluorobenzamido)-5-(morpholinosulfonyl) thiophene-3-carboxamide] | 271
26 | NC(=O)c1cc(S(=O)(=O)N2CCOCC2)sc1NC(=O)c1cccc(C2CC2)c1 [Compound 134, 2-(3-cyclopropylbenzamido)-5-(morpholinosulfonyl) thiophene-3-carboxamide] | 946
27 | COc1cc(C)ccc1C(=O)Nc1sc(S(=O)(=O)N2CCOCC2)cc1C(N)=O [Compound 135, 2-(2-methoxy-4-methylbenzamido)-5-(morpholinosulfonyl) thiophene-3-carboxamide] | > 1000
28 | Cc1ccccc1C(=O)Nc1sc(S(=O)(=O)N2CCOCC2)cc1C(N)=O [Compound 136, 2-(2-methylbenzamido)-5-(morpholinosulfonyl) thiophene-3-carboxamide] | 291
29 | NC(=O)c1cc(S(=O)(=O)N2CCOCC2)sc1NC(=O)c1cccc(O)c1 [Compound 137, 2-(3-hydroxybenzamido)-5-(morpholinosulfonyl) thiphene-3-carboxamide] | 263
30 | NC(=O)c1cc(S(=O)(=O)N2CCOCC2)sc1NC(=O)c1ccc(F)cc1F [Compound 138, 2-(2,4-difluorobenzamido)-5-(morpholinosulfonyl) thiophene-3-carboxamide] | 313
31 | NC(=O)c1cc(S(=O)(=O)N2C[C@@H]3C[C@H]2CO3)sc1NC(=O)c1ccccc1F [Compound 144, 5-((1S,4S)-2-oxa-5-azabicyclo[2.2.1]heptan-5-ylsulfonyl)-2-(2-fluorobenzamido) thiophene-3-carboxamide] | 365
32 | NC(=O)c1cc(S(=O)(=O)N2CCCOCC2)sc1NC(=O)c1cc[nH]n1 [Compound 146, N-(5-(1,4-oxazepan-4-ylsulfonyl)-3-carbamoylthiophen-2-yl)-1H-pyrazole-3-carboxamide] | 241
33 | COc1ccc(CN(C)S(=O)(=O)c2cc(C(N)=O)c(NC(=O)c3ccccc3F)s2)cc1 [Compound 147, 2-(2-fluorobenzamido)-5-(N-(4-methoxybenzyl)-N-methylsulfamoyl)thiophene-3-carboxamide] | 242
34 | CC(C)(C)OC(=O)N1CCC2(CC1)CCN(S(=O)(=O)c1cc(C(N)=O)c(NC(=O)c3ccccc3F)s1)C2 [Compound 148, tert-butyl 2-(4-carbamoyl-5-(2-fluorobenzamido)thiophen-2-ylsulfonyl)-2,8-diazaspiro[4.5]decane-8-carboxylate] | 344
35 | CC(C)(O)C1CCN(S(=O)(=O)c2cc(C(N)=O)c(NC(=O)c3ccccc3F)s2)CC1 [Compound 149, 2-(2-fluorobenzamido)-5-(4-(2-hydroxypropan-2-yl)piperidin-1-ylsulfonyl) thiophene-3-carboxamide] | 517
36 | NC(=O)c1cc(S(=O)(=O)N2CCc3ccccc3C2)sc1NC(=O)c1ccccc1F [Compound 150] | 638
37 | NC(=O)c1cc(S(=O)(=O)N2Cc3ccccc3C2)sc1NC(=O)c1ccccc1F [Compound 151, 2-(2-fluorobenzamido)-5-(isoindolin-2-ylsulfonyl)thiophene-3-carboxamide] | 357
38 | CN1CCC(N(C)S(=O)(=O)c2cc(C(N)=O)c(NC(=O)c3ccccc3F)s2)CC1 [Compound 155, 2-(2-fluorobenzamido)-5-(N-methyl-N-(1-methylpiperidin-4-yl)sulfamoyl) thiophene-3-carboxamide] | > 1000
39 | NC(=O)c1cc(S(=O)(=O)N(Cc2cccc(F)c2)C2CC2)sc1NC(=O)c1ccccc1F [Compound 156, 5-(N-cyclopropyl-N-(3-fluorobenzyl)sulfamoyl)-2-(2-fluorobenzamido) thiophene-3-carboxamide] | 361
40 | NC(=O)c1cc(S(=O)(=O)N2CCC(c3ccccc3)CC2)sc1NC(=O)c1ccccc1F [Compound 159, 2-(2-fluorobenzamido)-5-(4-phenylpiperidin-1-ylsulfonyl)thiophene-3-carboxamide] | 407
